Data published in patent US12371454B2, “Cyclic peptide compound having Kras inhibitory action” (priority 2019, dated 2025).
Starred links: 1 amine or outer side, 2 acyl side, 3 side chain; linkers in the order of their positions; H or OH if unused. Positions of bridges follow the written chain, without caps; N, C: chain ends. Non-standard residues stand in square brackets, D forms with d. Residues, ends and D or L forms follow the SMILES beside them. *: point of attachment. NMeAbu(3,3-F2-piperidino) = CN[C@@H](CCN1CCCC(F)(F)C1)C(=O)O; hPhe(3-Cl-4-CF3) = N[C@@H](CCc1ccc(C(F)(F)F)c(Cl)c1)C(=O)O; NMePhe(4-CF3) = CN[C@@H](Cc1ccc(C(F)(F)F)cc1)C(=O)O; hPhe(4-CF3) = N[C@@H](CCc1ccc(C(F)(F)F)cc1)C(=O)O; NMePhe(3,4-F2) = CN[C@@H](Cc1ccc(F)c(F)c1)C(=O)O; NMePhe(4-Cl) = CN[C@@H](Cc1ccc(Cl)cc1)C(=O)O; NMedβ3hAla = C[C@H](CC(=O)[*:2])N(C)[*:1]; NMePhe(2-F) = CN[C@@H](Cc1ccccc1F)C(=O)O; NMeGly(cPent) = CN[C@H](C(=O)O)C1CCCC1; Pro(4,4-F2) = O=C(O)[C@@H]1CC(F)(F)CN1; NMeCha = CN[C@@H](CC1CCCCC1)C(=O)O; NMeF = CN[C@@H](Cc1ccccc1)C(=O)O; NMeI = CC[C@H](C)[C@H](NC)C(=O)O; NMeD = CN[C@@H](CC(=O)O)C(=O)O; NMeL = CN[C@@H](CC(C)C)C(=O)O; NMeV = CN[C@H](C(=O)O)C(C)C; d(β3hA) = C[C@@H](N)CC(=O)O; NMeA = CN[C@@H](C)C(=O)O; Pyrrolidide = C1CCN(*)C1; dNMeA = CN[C@H](C)C(=O)O; Ac5c = NC1(C(=O)O)CCCC1; Aze = O=C(O)[C@@H]1CCN1; Ac4c = NC1(C(=O)O)CCC1; βAla = NCCC(=O)O; Sar = CNCC(=O)O

The compounds below were run against T1, Kras and SOS1 (biotin-tagged human Kras loaded with GDP, His-tagged human SOS1) (Homo sapiens, UniProt P01116, G12D) (assay: Protein-protein interaction inhibition between Kras and SOS1 (KrasGl2D-SOS PPI) using AlphaScreen). Details: AlphaScreen; biotin-tagged human Kras loaded with GDP, His-tagged human SOS1; read-out: KRAS G12D-SOS PPI IC50.
T1 construct: made in house; host or cells: E. coli (stated for Kras only)
T1 sequence (P01116 1-188 isoform P01116-2 G12D): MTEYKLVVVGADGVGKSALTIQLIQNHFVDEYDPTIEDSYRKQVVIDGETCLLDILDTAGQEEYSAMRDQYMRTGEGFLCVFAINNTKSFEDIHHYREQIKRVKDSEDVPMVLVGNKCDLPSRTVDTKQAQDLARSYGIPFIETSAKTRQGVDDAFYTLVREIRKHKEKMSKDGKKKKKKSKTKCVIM
Assay type: binding
Procedure, shortened: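 Kras was produced in E. coli, purified, then loaded with GDP. It was paired via streptavidin acceptor beads with His-SOS1 held on nickel donor beads, and proximity signal at 520-620 nm was read after 680 nm illumination.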

Question: `CC[C@H](C)[C@@H]1NC(=O)[C@H](C)N(C)C(=O)C[C@@H](C)NC(=O)[C@H](C2CCCC2)N(C)C(=O)C2(CCCC2)NC(=O)[C@@H]2CCCN2C(=O)[C@H](CCc2ccc(C(F)(F)F)c(Cl)c2)NC(=O)[C@@H](C)N(C)C(=O)[C@H](Cc2ccc(Cl)cc2)N(C)C(=O)CN(C)C(=O)CN(C)C1=O` [Compound 1065] (cyclo([Ac5c][NMeGly(cPent)][d(β3hA)][NMeA]I[Sar][Sar][NMePhe(4-Cl)][dNMeA][hPhe(3-Cl-4-CF3)]P)) was tested. Which IC50 did it give?
Answer: 70 nM

Question: How did the IC50 turn out when `CC[C@H](C)[C@@H]1NC(=O)[C@H](CC(C)C)N(C)C(=O)C[C@@H](C)N(C)C(=O)[C@H]([C@@H](C)CC)N(C)C(=O)C2(CCC2)NC(=O)[C@@H]2CC(F)(F)CN2C(=O)[C@H](CCc2ccc(C(F)(F)F)c(Cl)c2)NC(=O)CN(C)C(=O)[C@H](Cc2ccc(C(F)(F)F)cc2)N(C)C(=O)CN(C)C(=O)CN(C)C1=O` [Compound 1074] (cyclo([Ac4c][NMeI][NMedβ3hAla][NMeL]I[Sar][Sar][NMePhe(4-CF3)][Sar][hPhe(3-Cl-4-CF3)][Pro(4,4-F2)])) was run?
Answer: 11 nM

Question: For `CC[C@H](C)[C@@H]1NC(=O)[C@H](C)N(C)C(=O)C[C@@H](C)NC(=O)[C@H](C2CCCC2)N(C)C(=O)C2(CCCC2)NC(=O)[C@@H]2CCCN2C(=O)[C@H](CCc2ccc(C(F)(F)F)c(Cl)c2)NC(=O)[C@@H](C)N(C)C(=O)[C@H](Cc2ccc(F)c(F)c2)N(C)C(=O)CN(C)C(=O)CN(C)C1=O` [Compound 1075] (cyclo([Ac5c][NMeGly(cPent)][d(β3hA)][NMeA]I[Sar][Sar][NMePhe(3,4-F2)][dNMeA][hPhe(3-Cl-4-CF3)]P)), which IC50 is on record?
Answer: 140 nM

Question: With `CC[C@H](C)[C@@H]1NC(=O)[C@H](C)N(C)C(=O)C[C@@H](C)NC(=O)[C@H](C2CCCC2)N(C)C(=O)C2(CCCC2)NC(=O)[C@@H]2CCCN2C(=O)[C@H](CCc2ccc(C(F)(F)F)c(Cl)c2)NC(=O)CN(C)C(=O)[C@H](Cc2ccccc2F)N(C)C(=O)[C@@H]2CCCN2C(=O)CN(C)C1=O` [Compound 1077] (cyclo([Ac5c][NMeGly(cPent)][d(β3hA)][NMeA]I[Sar]P[NMePhe(2-F)][Sar][hPhe(3-Cl-4-CF3)]P)) as the compound, how does the IC50 read?
Answer: 34 nM

Question: For `CC[C@H](C)[C@@H]1NC(=O)[C@H](C)N(C)C(=O)C[C@@H](C)NC(=O)[C@H](C(C)C)N(C)C(=O)[C@H](Cc2ccccc2)N(C)C(=O)[C@H](CC(C)C)N(C)C(=O)[C@H](CCc2ccc(C(F)(F)F)c(Cl)c2)NC(=O)CN(C)C(=O)[C@H](Cc2ccc(Cl)cc2)N(C)C(=O)CN(C)C(=O)CN(C)C1=O` [Compound 1079] (cyclo(I[Sar][Sar][NMePhe(4-Cl)][Sar][hPhe(3-Cl-4-CF3)][NMeL][NMeF][NMeV][d(β3hA)][NMeA])), which IC50 is on record?
Answer: 15 nM

Question: Which IC50 does the source give for `CC[C@H](C)[C@@H]1NC(=O)[C@H](CC(C)C)N(C)C(=O)C[C@@H](C(=O)N(C)C)N(C)C(=O)[C@H](C2CCCC2)N(C)C(=O)[C@H](C)NC(=O)[C@H](CCN2CCCC(F)(F)C2)N(C)C(=O)[C@H](CCc2ccc(C(F)(F)F)c(Cl)c2)NC(=O)CN(C)C(=O)[C@H](CC2CCCCC2)N(C)C(=O)[C@@H]2CCN2C(=O)[C@H](C)N(C)C1=O` [Compound 1081] ([NMeL]I[NMeA][Aze][NMeCha][Sar][hPhe(3-Cl-4-CF3)][NMeAbu(3,3-F2-piperidino)]A[NMeGly(cPent)][NMeD]-NMe2; lactam N-11) here?
Answer: 25 nM

Question: `CC[C@H](C)[C@@H]1NC(=O)[C@H](CC(C)C)N(C)C(=O)C[C@@H](C)NC(=O)[C@H](C(C)C)N(C)C(=O)C2(CCCC2)NC(=O)[C@@H]2CCCN2C(=O)[C@H](CCc2ccc(C(F)(F)F)c(Cl)c2)NC(=O)CN(C)C(=O)[C@H](CC2CCCCC2)N(C)C(=O)[C@@H]2CCN2C(=O)[C@@H]2CCCN2C1=O` [Compound 1082] (cyclo([Ac5c][NMeV][d(β3hA)][NMeL]IP[Aze][NMeCha][Sar][hPhe(3-Cl-4-CF3)]P)) was tested. Which IC50 did it give?
Answer: 270 nM

Question: With `CC[C@H](C)[C@@H]1NC(=O)[C@H](C)N(C)C(=O)C[C@@H](C(=O)N2CCCC2)NC(=O)[C@H](CC(C)C)N(C)C(=O)[C@H](Cc2ccccc2)NC(=O)[C@H](CC(C)C)NC(=O)[C@H](CCc2ccc(C(F)(F)F)cc2)NC(=O)CN(C)C(=O)[C@H](Cc2ccc(Cl)cc2)N(C)C(=O)CN(C)C(=O)CN(C)C1=O` [Compound 1085] ([NMeA]I[Sar][Sar][NMePhe(4-Cl)][Sar][hPhe(4-CF3)]LF[NMeL]D-Pyrrolidide; lactam N-11) as the compound, how does the IC50 read?
Answer: 50 nM

Question: For `CC[C@H](C)[C@@H]1NC(=O)[C@H](C)N(C)C(=O)CCNC(=O)[C@H](CC(C)C)N(C)C(=O)[C@H](Cc2ccccc2)N(C)C(=O)[C@@H]2CCCN2C(=O)[C@H](CCc2ccc(C(F)(F)F)cc2)NC(=O)CN(C)C(=O)[C@H](Cc2ccc(Cl)cc2)N(C)C(=O)CN(C)C(=O)CN(C)C1=O` [Compound 1086] (cyclo(I[Sar][Sar][NMePhe(4-Cl)][Sar][hPhe(4-CF3)]P[NMeF][NMeL][βAla][NMeA])), which IC50 is on record?
Answer: 180 nM
